Source: patent US9156877B2, “17-hydroxy-17-pentafluorethyl-estra-4,9(10)-dien-11-benzylidene derivatives, methods for the production thereof and use thereof for treating diseases” (Bayer Intellectual Property GmbH, priority 2009, dated 2015)
≈ marks a conversion by molar mass, not a printed value.

How the values were obtained:
[1] = molecular target: T1, human progesterone receptor A (Homo sapiens, UniProt P06401); test: Progesterone receptor-antagonistic action in stably transfected SK-N-MC cells with MMTV-LUC reporter (PR-A); type: cell-based; settings: antagonistic potency against 0.1 nmol/l promegestone, 24 hours, luciferase
T1 construct: expressed in transfected cells; host or cells: SK-N-MC human neuroblastoma cells, stably transfected with pRChPR-A-neo and pMMTV-LUC
T1 sequence (P06401 1-769 isoform P06401-2): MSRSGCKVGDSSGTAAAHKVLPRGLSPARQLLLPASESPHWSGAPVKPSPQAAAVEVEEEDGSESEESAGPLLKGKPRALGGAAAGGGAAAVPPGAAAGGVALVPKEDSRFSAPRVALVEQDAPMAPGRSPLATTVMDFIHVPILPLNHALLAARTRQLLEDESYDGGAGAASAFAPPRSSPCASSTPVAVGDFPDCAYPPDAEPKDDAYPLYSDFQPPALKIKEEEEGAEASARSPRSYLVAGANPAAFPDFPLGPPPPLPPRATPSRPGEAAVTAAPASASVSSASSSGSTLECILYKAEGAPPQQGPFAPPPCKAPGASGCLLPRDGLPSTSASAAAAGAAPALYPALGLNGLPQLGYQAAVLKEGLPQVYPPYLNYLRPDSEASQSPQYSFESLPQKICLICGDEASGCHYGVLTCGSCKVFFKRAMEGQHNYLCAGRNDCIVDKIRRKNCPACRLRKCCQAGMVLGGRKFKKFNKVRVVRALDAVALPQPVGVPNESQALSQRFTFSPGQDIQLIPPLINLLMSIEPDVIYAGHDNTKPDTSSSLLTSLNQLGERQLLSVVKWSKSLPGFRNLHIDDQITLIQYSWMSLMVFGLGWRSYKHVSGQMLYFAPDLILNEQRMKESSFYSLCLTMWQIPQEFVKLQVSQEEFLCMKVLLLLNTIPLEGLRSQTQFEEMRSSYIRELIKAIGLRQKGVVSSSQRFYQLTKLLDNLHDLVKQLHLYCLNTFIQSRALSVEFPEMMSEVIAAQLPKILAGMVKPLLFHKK
Summary of the method: (§1)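 SK-N-MC neuroblastoma cells stably expressing human PR-A or PR-B plus MMTV-LUC reporter, treated 24 h with test compound (0.01 nmol/l–[…]). Antagonist mode used co-treatment with 0.1 nmol/l promegestone; luciferase in lysates read as RLU, expressed as % efficacy and IC50/EC50.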

[2] = molecular target: T2, human progesterone receptor B (Homo sapiens, UniProt P06401); test: Progesterone receptor-antagonistic action in stably transfected SK-N-MC cells with MMTV-LUC reporter (PR-B); type: cell-based; settings: antagonistic potency against 0.1 nmol/l promegestone, 24 hours, luciferase
T2 construct: expressed in transfected cells; host or cells: SK-N-MC human neuroblastoma cells, stably transfected with pRChPR-B-neo and pMMTV-LUC
T2 sequence (P06401 1-933): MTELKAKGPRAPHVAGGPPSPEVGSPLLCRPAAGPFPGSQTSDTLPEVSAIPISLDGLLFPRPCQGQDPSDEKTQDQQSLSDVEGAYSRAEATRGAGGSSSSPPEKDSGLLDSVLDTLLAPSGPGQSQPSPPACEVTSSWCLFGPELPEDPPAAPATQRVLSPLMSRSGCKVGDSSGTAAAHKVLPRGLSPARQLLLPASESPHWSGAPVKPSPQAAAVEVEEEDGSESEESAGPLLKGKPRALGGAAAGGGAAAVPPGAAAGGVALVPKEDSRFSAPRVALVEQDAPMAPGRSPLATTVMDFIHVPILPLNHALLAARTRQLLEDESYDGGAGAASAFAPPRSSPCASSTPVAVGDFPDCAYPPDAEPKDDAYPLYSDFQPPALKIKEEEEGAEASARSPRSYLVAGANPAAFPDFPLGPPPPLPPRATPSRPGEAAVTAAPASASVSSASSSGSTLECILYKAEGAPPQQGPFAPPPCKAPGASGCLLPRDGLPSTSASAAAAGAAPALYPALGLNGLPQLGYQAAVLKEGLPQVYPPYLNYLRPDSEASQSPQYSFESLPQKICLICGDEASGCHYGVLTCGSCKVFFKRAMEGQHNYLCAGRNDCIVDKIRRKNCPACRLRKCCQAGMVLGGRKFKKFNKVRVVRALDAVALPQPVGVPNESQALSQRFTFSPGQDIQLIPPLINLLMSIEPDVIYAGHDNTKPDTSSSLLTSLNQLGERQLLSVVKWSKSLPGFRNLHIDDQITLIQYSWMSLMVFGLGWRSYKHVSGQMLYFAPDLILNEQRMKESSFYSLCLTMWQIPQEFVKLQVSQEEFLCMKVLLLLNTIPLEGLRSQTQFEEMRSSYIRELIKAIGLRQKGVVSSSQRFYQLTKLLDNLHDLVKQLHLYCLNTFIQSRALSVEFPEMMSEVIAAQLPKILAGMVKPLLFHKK
Summary of the method: as §1

[3] = Metabolic stability in human liver microsomes; type: in vitro ADME; settings: for Predicted clearance [l/h/kg] Human: 1 μM, well-stirred model
Experimental: (§2) Determination of Metabolic Stability in Human and Rat Liver Microsomes
Isolated human liver microsomes (HLM) were used to assess the metabolic stability of compounds of general formula I.
(§3) The incubations were conducted with 2.4 ml of HLM solution (protein content 0.5 mg/ml), 30 μl of the test compound (final concentration 1 μM) and 0.6 ml of the cofactor mixture (═NADPH-generating system composed of 3 IU glucose-6-phosphate dehydrogenase, 14.6 mg glucose-6-phosphate, 1.2 mg NADP) at 37° C. in 100 mM phosphate buffer at pH 7.4. Samples were taken at 6 time points (2-60 min) and precipitated with an equal volume of methanol, and the recovery of the test substances used in the supernatant was determined by LC-MS/MS analysis. The half-life of substance degradation determined therefrom was used to calculate what is called the intrinsic clearance of the substance in the liver microsome preparation. […] In addition, under the assumptions that (i) absorption of the test substance is 100%, and (ii) the first pass is completely reflected by liver microsome metabolism, a maximum oral bioavailability (Fmax) was calculated.

[4] = Metabolic stability in rat liver microsomes; type: in vitro ADME; settings: for Predicted clearance [l/h/kg] Rat: well-stirred model
Experimental: as §2, §3

[5] = Solubility in aqueous medium at pH 7.4; type: physicochemical; settings: for solubility: aqueous medium, pH 7.4, aqueous buffer; for solubility (in words): aqueous medium under physiological conditions
Text: In addition, some compounds have an unusually good solubility, for this active ingredient class, in aqueous medium under physiological conditions (Table 2).

| IC50 [1] | IC50 [2] | Predicted Fmax [%] (maximum oral bioavailability) Human [3] | Predicted clearance [l/h/kg] Human [3] | Predicted Fmax [%] (maximum oral bioavailability) Rat [4] | Predicted clearance [l/h/kg] Rat [4] | solubility [5] | solubility (in words) [5] | SMILES |
| --- | --- | --- | --- | --- | --- | --- | --- | --- |
| 0.14 nM | 0.25 nM | 69% | 0.41 L/h/kg | 69% | 1.3 L/h/kg | 11 µg/mL (≈ 21.1 µM) |  | C[C@]12C[C@H](c3ccc(/C=C/CO)cc3)C3=C4CCC(=O)C=C4CC[C@H]3[C@@H]1CC[C@@]2(O)C(F)(F)C(F)(F)F [Example 2, (8S,11R,13S,14S,17S)-17-hydroxy-11-[4-((E)-3-hydroxypropenyl)phenyl]-13-methyl-17-pentafluoroethyl-1,2,6,7,8,11,12,13,14,15,16,17-dodecahydrocyclopenta[a]phenanthren-3-one] |
| 0.4 nM | 0.13 nM | 100% | 0.00 L/h/kg | 88% | 0.5 L/h/kg | 203 µg/mL (≈ 334 µM) | improved | C[C@]12C[C@H](c3ccc(/C=C/CC(C(=O)O)C(=O)O)cc3)C3=C4CCC(=O)C=C4CC[C@H]3[C@@H]1CC[C@@]2(O)C(F)(F)C(F)(F)F [Example 5, 2-{(E)-3-[4-((8S,11R,13S,14S,17S)-17-hydroxy-13-methyl-3-oxo-17-pentafluoroethyl-2,3,6,7,8,11,12,13,14,15,16,17-dodecahydro-1H-cyclopenta[a]phenanthren-11-yl)phenyl]allyl}malonic acid] |
| 0.01 nM | 0.02 nM | 36% | 0.84 L/h/kg | 57% | 1.8 L/h/kg | 6 µg/mL |  | C=CC=Cc1ccc([C@H]2C[C@@]3(C)C(CC[C@@]3(O)C(F)(F)C(F)(F)F)C3CCC4=CC(=O)CCC4=C32)cc1 (mixture of isomers) [Example 18, (8S,11R,13S,14S,17S)-11-[((E/Z)-4-buta-1,3-dienyl)phenyl]-17-hydroxy-13-methyl-17-pentafluoroethyl-1,2,6,7,8,11,12,13,14,15,16,17-dodecahydrocyclopenta[a]phenanthren-3-one] |
| 0.06 nM | 0.1 nM | 74% | 0.35 L/h/kg | 97% | 0.1 L/h/kg | 120 µg/mL (≈ 196 µM) | improved | C[C@]12C[C@H](c3ccc(/C=C/c4cccc(C(=O)O)c4)cc3)C3=C4CCC(=O)C=C4CC[C@H]3[C@@H]1CC[C@@]2(O)C(F)(F)C(F)(F)F [Example 28, 3-{(E)-2-[4-((8S,11R,13S,14S,17S)-17-hydroxy-13-methyl-3-oxo-17-pentafluoroethyl-2,3,6,7,8,11,12,13,14,15,16,17-dodecahydro-1H-cyclopenta[a]phenanthren-11-yl)phenyl]vinyl}benzoic acid] |
| 0.1 nM | 0.3 nM | 23% | 1.02 L/h/kg | 52% | 2.0 L/h/kg | 10 µg/mL (≈ 18.7 µM) |  | CC(=O)/C=C/c1ccc([C@H]2C[C@@]3(C)[C@@H](CC[C@@]3(O)C(F)(F)C(F)(F)F)[C@@H]3CCC4=CC(=O)CCC4=C32)cc1 [Example 16, (8S,11R,13S,14S,17S)-17-hydroxy-13-methyl-11-[4-((E)-3-oxobut-1-enyl)phenyl]-17-pentafluoroethyl-1,2,6,7,8,11,12,13,14,15,16,17-dodecahydrocyclopenta[a]phenanthren-3-one] |
| 0.1 nM | 0.3 nM | 52% | 0.63 L/h/kg | 97% | 0.1 L/h/kg | > 179 µg/mL | improved | C[C@]12C[C@H](c3ccc(/C=C/C(=O)O)cc3)C3=C4CCC(=O)C=C4CC[C@H]3[C@@H]1CC[C@@]2(O)C(F)(F)C(F)(F)F [Example 13, (E)-3-[4-((8S,11R,13S,14S,17S)-17-hydroxy-13-methyl-3-oxo-17-pentafluoroethyl-2,3,6,7,8,11,12,13,14,15,16,17-dodecahydro-1H-cyclopenta[a]phenanthren-11-yl)phenyl]acrylic acid] |
| 0.055 nM | 0.09 nM | 68% | 0.43 L/h/kg | 76% | 1.0 L/h/kg | 8 µg/mL (≈ 13.6 µM) |  | Cc1nc(/C=C/c2ccc([C@H]3C[C@@]4(C)[C@@H](CC[C@@]4(O)C(F)(F)C(F)(F)F)[C@@H]4CCC5=CC(=O)CCC5=C43)cc2)cs1 [Example 9, (8S,11R,13S,14S,17S)-17-hydroxy-13-methyl-11-{4-[(E)-2-(2-methylthiazol-4-yl)vinyl]phenyl}-17-pentafluoroethyl-1,2,6,7,8,11,12,13,14,15,16,17-dodecahydrocyclopenta[a]phenanthren-3-one] |
